PMC13114161 (Antibiotics, 2026)
pIC50: −log10 of the molar value.

Columns and labels:
[1] = tested on: P. aeruginosa; assay: MIC potentiation of antimicrobial agents by EPIs; format: cell-based, Pseudomonas aeruginosa; details: for Fold difference of antibiotic MIC + TXA01182 / MIC of antibiotic + TXA01182: TXA01182 at […]; for Fold difference of antibiotic MIC + TXA09155 / MIC of antibiotic + TXA09155: TXA09155 at […]; for Fold difference of antibiotic MIC + TXA11114 / MIC of antibiotic + TXA11114: TXA11114 at […];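 on Fold difference of antibiotic MIC + TXA01182: TXA01182 tested at 6.25 µg/mL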;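 on Fold difference of antibiotic MIC + TXA09155: TXA09155 tested at 6.25 µg/mL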; on Fold difference of antibiotic MIC + TXA11114: TXA11114 at 6.25 µg/mL;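 on MIC of antibiotic + TXA01182: TXA01182 tested at 6.25 µg/mL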;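 on MIC of antibiotic + TXA09155: TXA09155 tested at 6.25 µg/mL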; on MIC of antibiotic + TXA11114: TXA11114 at 6.25 µg/mL
Procedure: In contrast, the activities of gentamicin and imipenem were unchanged in the presence of TXA11114 under the conditions tested. Although gentamicin can be transported by the MexXY efflux system, the absence of potentiation in this assay is not sufficient to draw conclusions regarding MexXY inhibition or overall efflux specificity.
(§1) MIC assays for potentiation of antimicrobial activity against P. aeruginosa were performed as described previously.

[2] = tested on: P. aeruginosa K1119 (∆mexAB-oprM); assay: Antibiotic MIC potentiation in efflux mutants; format: cell-based, Pseudomonas aeruginosa
Procedure: (§2) Next, the ability of TXA11114 to inhibit P. aeruginosa mutants overexpressing MexAB-OprM was evaluated. Loss of function mutations in nalB resulting in the overexpression of MexAB-OprM have been identified in P. aeruginosa clinical isolates and are associated with resistance to cephalosporins, fluoroquinolones and aminoglycosides. In theory, an EPI should reverse the antimicrobial susceptibility lost in bacteria-overexpressing efflux pumps. Thus, the TXA11114 EPI activity was studied using antibiotics that display efflux liabilities in this RND efflux pump (Table 5).
as §1

[3] = tested on: P. aeruginosa K1455 (↑mexAB-oprM); assay: Antibiotic MIC potentiation in efflux mutants; format: cell-based, Pseudomonas aeruginosa
Procedure: as §2, §1

[4] = tested on: P. aeruginosa K767 (WT); assay: Antibiotic MIC potentiation in efflux mutants; format: cell-based, Pseudomonas aeruginosa
Procedure: as §2, §1

[5] = tested on: P. aeruginosa ATCC 27853; assay: MIC and levofloxacin potentiation (broth microdilution); format: cell-based, Pseudomonas aeruginosa; details: ATCC 27853
Procedure: Once synthesized, the three fluorinated EPI analogs (TXA11114, TXA11164 and TXA12027) were first assayed for their antibacterial activities against P. aeruginosa ATCC 27853. They had MICs of 100, >200 and 100 µg/mL, respectively (Table 1). […] Particularly, the inactivity of TXA11164 was surprising as the pKa values of both the amines are similar to that in TXA11114.
as §1

[6] = in vivo; details: female, CD-1, mouse, iv
Procedure: Thus, the safety and tolerability of TXA11114 was determined to find an optimum dosing capability. The maximum tolerated dose (MTD) of TXA11114 was assessed in female mice (CD-1, 6–8 weeks old) at the University of North Texas Health Science Center (UNTHSC). TXA11114 was administered IV to groups of three female mice. Mice were administered TXA11114 in the range 30–240 mg/kg (IV bolus). […] As doses are tolerated (not resulting in effects such as mortality, convulsions, or other severe morbidity), they are increased. Survival and general observations as to the tolerability of the administered dose started immediately and continued for a period of 48 h after each dose was recorded.

[7] = tested on: P. aeruginosa ATCC 27853; assay: Neutropenic murine thigh infection model; format: in vivo, CD-1 mice; details: thigh or lung infection models
Procedure: Female CD-1 mice (6–8 weeks old; 22 ± 2 g) were obtained from Envigo Laboratories, quarantined for at least 3 days, and housed 5 per cage in accordance with the approved IACUC protocol (IACUC-2017-0049). Neutropenia was induced by intraperitoneal (IP) administration of cyclophosphamide (Cytoxan) at 150 mg/kg on day 4 and 100 mg/kg on day 1 prior to infection.
Mice were infected intramuscularly (IM) in the right thigh with 0.1 mL of bacterial suspension containing approximately 1 × 10^5–10^6 CFU/mL. […] At 2 h or 24 h post-infection, mice were euthanized by CO2 asphyxiation, and thighs were aseptically excised and placed in 2 mL sterile phosphate-buffered saline (PBS) on ice. Tissue homogenization was performed using a Polytron PT10-35 (12 mm aggregate, Kinematica, Malters, Switzerland).
Plates were incubated overnight at 37 °C, and colonies were enumerated the following day.

[8] = tested on: P. aeruginosa; design: method as in PMID 35052908, PMID 35740123; details: against P. aeruginosa; cited from earlier work
[9] = tested on: P. aeruginosa ATCC 27853; assay: Membrane polarization assay DiOC2(3); format: cell-based, Pseudomonas aeruginosa; details: Pseudomonas aeruginosa, ATCC27853; positive control; read-out: IC50 (membrane potential, DiOC2(3))
Procedure: RND efflux pumps require an intact proton motive force across the inner membrane to mediate drug efflux. Accordingly, collapse of the membrane potential could indirectly disable efflux activity and result in apparent antibiotic potentiation. To determine whether TXA11114 dissipates the membrane potential of P. aeruginosa, membrane polarization was assessed using the fluorescent probe 3,3′-diethyloxacarbocyanine iodide (DiOC2(3)). DiOC2(3) accumulates in cells with polarized membranes, undergoing a concentration-dependent shift from green to red fluorescence due to dye stacking; membrane depolarization prevents this shift. […] CCCP and azithromycin were included as positive and negative controls, respectively. […] This discrepancy likely reflects a methodological limitation of the DiOC2(3) assay in Gram-negative bacteria. Specifically, EDTA treatment is required to transiently permeabilize the outer membrane to permit DiOC2(3) access to the cytoplasmic membrane (see Methods). While necessary for probe uptake, EDTA can sensitize cells to secondary perturbations and may exaggerate subtle fluorescence changes at supraphysiological compound concentrations.
P. aeruginosa membrane polarization assays were conducted as described previously using strain ATCC 27853. Briefly, mid-exponential phase (OD600 of 0.5) P. aeruginosa was pelleted by centrifugation at 3000× g for 10 min at room temperature. Cells were then resuspended in 1× PBS, treated with 10 mM EDTA for 5 min and then centrifuged at 300× g for 10 min to remove EDTA. EDTA-treated cells were pelleted and resuspended to an OD600 of 1.0 in assay resuspension buffer. A 6 mM DiOC2(3) stock in DMSO was added to cells for a final concentration of 30 µM. DiOC2(3)-loaded cells were then added to a 96-well black bottom microplate for a final volume of 200 µL. […] After 15 min incubation at 37 °C in dark, DiOC2(3) fluorescence was recorded using the SpectraMax iD5 spectrophotometer (Molecular Devices, San Jose, CA, USA) using 450 nm excitation. Red fluorescence intensity was recorded at 670 nm emission.

[10] = tested on: P. aeruginosa ATCC 27853; assay: Intracellular ATP levels; format: cell-based, Pseudomonas aeruginosa; details: three hours post-treatment
Procedure: Further, a deviation from normal membrane function can affect the activity of respiratory components and diminish ATP synthesis. Thus, an indirect approach to assess a drug’s membrane effect is by monitoring cellular ATP levels after treatment. To exclude ATP depletion as a TXA11114 MoA, bacterial ATP levels were evaluated three hours post-treatment. […] Azithromycin was used as a negative control.
P. aeruginosa intracellular ATP levels were determined as described previously using an ATP determination kit (Invitrogen, Life Technologies, Carlsbad, CA, USA). Bacterial culture strain ATCC 27853 was grown to the mid-log phase (OD600 = 0.7), washed, and resuspended in the same volume of PBSM (1X PBS, 1mM MgCl2). […] After treatment, the cells were lysed in chloroform which was subsequently removed by boiling at 80 °C. The persistent ATP from cell lysate was measured in a 96-well black flat-bottom plate by measuring the luminescence. Luminescence was converted to concentration from standard curve. […] Error bars represent the standard deviation of triplicates.

SMILES	Fold difference of antibiotic MIC + TXA01182 [1] [fold]	MIC of antibiotic + TXA01182 [1] [µg/mL]	Fold difference of antibiotic MIC + TXA09155 [1] [fold]	MIC of antibiotic + TXA09155 [1] [µg/mL]	Fold difference of antibiotic MIC + TXA11114 [1] [fold]	MIC of antibiotic + TXA11114 [1] [µg/mL]	Fold difference of antibiotic MIC + TXA11114 ([1]; listed as imipenem)	MIC Ratio of Antibiotics Alone/(Antibiotics + […] TXA11114) [2]	MIC Ratio of Antibiotics Alone/(Antibiotics + […] TXA11114) [3]	MIC Ratio of Antibiotics Alone/(Antibiotics + […] TXA11114) [4]	Fold MIC reduction [LVX/EPI-LVX] ([5]; EPI at […]) [fold]	MIC ([5]; Pseudomonas aeruginosa, ATCC27853, EPI alone, read-out: EPI MIC) [µg/mL]	LVX MIC (+EPI) ([5]; levofloxacin MIC with EPI at […]) [µg/mL]	MTD at 48 h [6] [mg/kg]	Improvement of levofloxacin efficacy in murine thigh or lung infection models [7]	Lowest concentration enhancing activity of monobactams, fluoroquinolones, sulfonamides and tetracyclines [8] [µg/mL]	pIC50 [9]	Cellular ATP level [10]
C[C@@H](O)[C@H]1C(=O)N2C(C(=O)O)=C(SCCN=CN)C[C@H]12 [Imipenem]	1	4	1	4	1	4	unchanged	1	1	1								
CO/N=C(\C(=O)N[C@@H]1C(=O)N2C(C(=O)[O-])=C(C[N+]3(C)CCCC3)CS[C@H]12)c1csc(N)n1 [Cefepime]	2	1	4	0.5	4	0.5		2	16	8								
NCCC[C@@H](N)CNC(=O)c1cc2ccc(-c3ccc(F)cc3)cc2[nH]1 [TXA01182]											8	100	0.125	12.5	neither TXA01182 nor TXA09155 improved levofloxacin efficacy	6.25		
N#CC(C#N)=NNc1cccc(Cl)c1 [CCCP, carbonyl cyanide 3-chlorophenylhydrazone]																	7.77	significant depletion of ATP
